Laboratory results: ChEMBL document CHEMBL1142643, “Haligramides A and B, two new cytotoxic hexapeptides from the marine sponge Haliclona nigra” (J Nat Prod, 2000)
Converted amounts (≈) assume the structure as drawn. Starred links: 1 amine or outer side, 2 acyl side, 3 side chain; linkers in the order of their positions; H or OH if unused. Non-standard residues stand in square brackets, D forms with d. Residues, ends and D or L forms follow the SMILES beside them. X1 = O=C(c1csc([C@H](Cc2ccccc2)N[*:1])n1)[*:2]; Met(O) = CS(=O)CC[C@H](N)C(=O)O

Assays:
Type in all cases: functional, cell-based
A549 = test: Cytotoxicity against human A549 cells after 2 days; settings: A549, 48 h
SF-539 = test: Cytotoxicity against human SF539 cells after 2 days; settings: SF-539, 48 h
SNB-19 = test: Cytotoxicity against human SNB19 cells after 2 days; settings: SNB-19, 48 h
HCT-15 = test: Cytotoxicity against human HCT15 cells after 2 days; settings: HCT-15, 48 h

CSCC[C@@H]1NC(=O)[C@@H]2CCCN2C(=O)[C@@H]2CCCN2C(=O)[C@H](CCSC)NC(=O)c2csc(n2)[C@H](Cc2ccccc2)NC(=O)[C@@H]2CCCN2C1=O [HALIGRAMIDE A] (cyclo(MPPMP[X1]))
IC50 (A549): 5.17 µg/mL (≈ 6.59 µM)
IC50 (SF-539): 9 µg/mL (≈ 11.5 µM)
IC50 (SNB-19): 9.08 µg/mL (≈ 11.6 µM)
IC50 (HCT-15): 15.6 µg/mL (≈ 19.9 µM)

CSCC[C@@H]1NC(=O)[C@@H]2CCCN2C(=O)[C@@H]2CCCN2C(=O)[C@H](CC[S+](C)[O-])NC(=O)c2csc(n2)[C@H](Cc2ccccc2)NC(=O)[C@@H]2CCCN2C1=O (stereo partly drawn) [HALIGRAMIDE B] (cyclo(MP[X1][Met(O)]PP))
IC50 (A549): 3.89 µg/mL (≈ 4.86 µM)
IC50 (SF-539): 5.01 µg/mL (≈ 6.26 µM)
IC50 (SNB-19): 6.56 µg/mL (≈ 8.2 µM)
IC50 (HCT-15): 8.82 µg/mL (≈ 11 µM)
